Source: US20240140986A1, “SYNTHETIC URSOLIC ACID DERIVATIVES AND METHODS OF USE THEREOF” (REATA PHARMACEUTICALS, INC., priority 2021, published 2024)
Read-outs that look alike come from different tables or passages of the source.

What was measured:
[1] = test system: Nrf2 / ARE-dependent luciferase in AREc32 reporter cell line; test: AREc32 luciferase reporter activation (Nrf2 induction); format: cell-based, human; conditions: for EC (2-fold): Homo sapiens, Arec32; for Relative Avg AREc32 EC2X Relative to RTA402 (fold): ratio to RTA402
Method in brief: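 EC2X is the concentration raising luminescence 2-fold above DMSO-treated cells, from a nonlinear-regression dose–response fit. Compounds (0.03–1000 nM) were applied for nineteen hours, starting one day after seeding 20,000 reporter cells per well. Luciferase was read with One-Glo reagent.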

[2] = test system: IFNγ-induced NO production in RAW 264.7 cells; test: Nitric Oxide Suppression Assay (IFNγ-induced NO, Griess nitrite readout); format: cell-based, mouse; conditions: for IC50: Mus musculus, read-out: Avg NO IC50 (nM) (Mean ± SD); for Avg NO IC50 Relative to RTA402 (fold): Table 2, ratio to RTA402
Method in brief: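 Nitrite, a surrogate for NO, was measured by Griess reagent (525 nm) and quantified from standards by linear regression, expressed as percent of DMSO plus IFNγ control to give IC50. RAW 264.7 cells had 2 h compound pretreatment, then 24 h with 20 ng/mL IFNγ; WST-1 checked viability.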

[3] = Table 2, concentration increasing luminescence 2-fold above vehicle, 19 h treatment, read-out: Avg AREc32 EC2X (nM) (Mean ± SD)
[4] = RAW264.7, Table 2, RAW 264.7 cells, 2 h pretreatment, 20 ng/mL interferon gamma 24 h
[5] = Table 3, ursolic acid derivatives, read-out: Avg ARE EC-2X (nM) (Mean ± SD)
[6] = RAW264.7, Table 3, ursolic acid derivatives

| Compound | EC (2-fold) [1, 3] [nM] | Relative Avg AREc32 EC2X Relative to RTA402 (fold) ([1]; Table 2) | IC50 [2, 4] [nM] | Avg NO IC50 Relative to RTA402 (fold) [2] [fold] | EC (2-fold) [1, 5] [nM] | IC50 [2, 6] [nM] |
| --- | --- | --- | --- | --- | --- | --- |
| C[C@@H]1[C@H]2[C@H]3C(=O)C=C4[C@@]5(C)C=C(C#N)C(=O)C(C)(C)[C@@H]5CC[C@@]4(C)[C@]3(C)CC[C@@]2(CN(C)C(=O)C(C)(F)F)CC[C@H]1C [Compound T38] | 34.5 ± 7.6 | 2.76 ± 0.32 | 39.2 ± 4.2 | 9.52 ± 1.82 |  |  |
| C[C@@H]1[C@H]2[C@H]3C(=O)C=C4[C@@]5(C)C=C(C#N)C(=O)C(C)(C)[C@@H]5CC[C@@]4(C)[C@]3(C)CC[C@@]2(CN(C)C(=O)C(F)F)CC[C@H]1C [Compound T39] | 9.58 ± 2.31 | 0.799 ± 0.095 | 10.4 ± 2.6 | 3.38 ± 0.68 |  |  |
| C[C@@H]1[C@H]2[C@H]3C(=O)C=C4[C@@]5(C)C=C(C#N)C(=O)C(C)(C)[C@@H]5CC[C@@]4(C)[C@]3(C)CC[C@@]2(CNCCO)CC[C@H]1C [Compound T40] | 16.1 ± 1.5 | 1.2 ± 0.2 | 25.8 ± 9.3 | 9.8 ± 5.7 | 16.1 ± 1.5 | 25.8 ± 9.3 |
| C[C@@H]1[C@H]2[C@H]3C(=O)C=C4[C@@]5(C)C=C(C#N)C(=O)C(C)(C)[C@@H]5CC[C@@]4(C)[C@]3(C)CC[C@@]2(CN2CCOC2=O)CC[C@H]1C [Compound T41] | 4.73 ± 2.12 | 0.354 ± 0.155 | 5.41 ± 2.52 | 1.79 ± 0.77 | 4.73 ± 2.12 | 5.41 ± 2.52 |
| C[C@@H]1[C@H]2[C@H]3C(=O)C=C4[C@@]5(C)C=C(C#N)C(=O)C(C)(C)[C@@H]5CC[C@@]4(C)[C@]3(C)CC[C@@]2(CN2CCOC2)CC[C@H]1C [Compound T42] | 26.3 ± 6 | 2.43 ± 0.39 | 38.2 ± 10 | 14.80 ± 6.91 | 26.3 ± 6 | 38.2 ± 10 |
| CC(=O)OCCNC[C@]12CC[C@@H](C)[C@H](C)[C@H]1[C@H]1C(=O)C=C3[C@@]4(C)C=C(C#N)C(=O)C(C)(C)[C@@H]4CC[C@@]3(C)[C@]1(C)CC2 [Compound T43] | 10.1 ± 1 | 0.8 ± 0.1 | 15.9 ± 7 | 5.93 ± 3.56 |  |  |
| C[C@@H]1[C@H]2[C@H]3C(=O)C=C4[C@@]5(C)C=C(C#N)C(=O)C(C)(C)[C@@H]5CC[C@@]4(C)[C@]3(C)CC[C@@]2(CN2CCN(C)C2=O)CC[C@H]1C [Compound T44] | 5.73 ± 1.79 | 0.53 ± 0.13 | 5.53 ± 1.8 | 2.03 ± 0.67 | 5.73 ± 1.79 | 5.5 ± 1.8 |
| C[C@@H]1[C@H]2[C@H]3C(=O)C=C4[C@@]5(C)C=C(C#N)C(=O)C(C)(C)[C@@H]5CC[C@@]4(C)[C@]3(C)CC[C@@]2(CN2CCNC2=O)CC[C@H]1C [Compound T45] | 6.14 ± 1.47 | 0.563 ± 0.065 | 8.79 ± 2.72 | 3.22 ± 0.99 |  |  |
| C[C@@H]1[C@H]2[C@H]3C(=O)C=C4[C@@]5(C)C=C(C#N)C(=O)C(C)(C)[C@@H]5CC[C@@]4(C)[C@]3(C)CC[C@@]2(Cn2cccn2)CC[C@H]1C [Compound T46] | 24.1 ± 6.7 | 2.06 ± 0.26 | 32.6 ± 2.2 | 8.4 ± 2.7 |  |  |
| C[C@@H]1[C@H]2[C@H]3C(=O)C=C4[C@@]5(C)C=C(C#N)C(=O)C(C)(C)[C@@H]5CC[C@@]4(C)[C@]3(C)CC[C@@]2(Cn2cncn2)CC[C@H]1C [Compound T47] | 7.08 ± 1.2 | 0.573 ± 0.139 | 8.19 ± 2 | 2.70 ± 0.52 | 7.1 ± 1.2 | 8.19 ± 2 |
| C[C@H]1[C@H](C)CC[C@]2(Cn3cncn3)CC[C@]3(C)C(O)(C(=O)C=C4[C@@]5(C)C=C(C#N)C(=O)C(C)(C)[C@@H]5CC[C@]43C)[C@H]12 (stereo partly drawn) [Compound T48] | 7.18 ± 1.2 | 0.602 ± 0.010 | 13.8 ± 1.5 | 3.66 ± 1.49 |  |  |
| Cc1cn(C[C@]23CC[C@@H](C)[C@H](C)[C@H]2[C@H]2C(=O)C=C4[C@@]5(C)C=C(C#N)C(=O)C(C)(C)[C@@H]5CC[C@@]4(C)[C@]2(C)CC3)nn1 [Compound T49] | 7.97 ± 0.73 | 0.643 ± 0.116 | 11.5 ± 2.6 | 3.77 ± 0.33 | 7.97 ± 0.73 | 11.5 ± 2.6 |
